Test results taken from PubChem BioAssay (NCI).
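The compound was tested at five concentrations on cells cultured in 96-well plates, with a 48-hour exposure period. Abbreviation: GI50, concentration required for 50% inhibition of growth. TGI: concentration producing complete growth inhibition.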

What was measured:
Assay in all cases: NCI anticancer screen, dose series, 48 h
NCI-H522 lung = tested on: NCI-H522 lung
DU-145 prostate = tested on: DU-145 prostate
T-47D breast = tested on: T-47D breast
KM12 colon = tested on: KM12 colon
CAKI-1 renal = tested on: CAKI-1 renal
SW-620 colon = tested on: SW-620 colon
IGROV1 ovarian = tested on: IGROV1 ovarian
NCI-H23 lung = tested on: NCI-H23 lung
HL-60(TB) leukemia = tested on: HL-60(TB) leukemia
HOP-62 NSCLC = tested on: HOP-62 NSCLC
UO-31 renal = tested on: UO-31 renal
SF-268 CNS = tested on: SF-268 CNS
EKVX NSCLC = tested on: EKVX NSCLC
PC-3 prostate = tested on: PC-3 prostate
MDA-MB-435 = tested on: MDA-MB-435
SR leukemia = tested on: SR leukemia
HT29 colon = tested on: HT29 colon
SNB-19 CNS = tested on: SNB-19 CNS
U251 CNS = tested on: U251 CNS
786-0 renal = tested on: 786-0 renal
A549 NSCLC = tested on: A549 NSCLC
OVCAR-4 ovarian = tested on: OVCAR-4 ovarian
COLO 205 colon = tested on: COLO 205 colon
BT-549 breast = tested on: BT-549 breast
MCF7 breast = tested on: MCF7 breast
NCI-H460 lung = tested on: NCI-H460 lung
SN12C renal = tested on: SN12C renal
SK-MEL-28 melanoma = tested on: SK-MEL-28 melanoma
HOP-92 NSCLC = tested on: HOP-92 NSCLC
UACC-257 melanoma = tested on: UACC-257 melanoma
MDA-MB-231 breast = tested on: MDA-MB-231 breast
OVCAR-5 ovarian = tested on: OVCAR-5 ovarian
SK-MEL-2 melanoma = tested on: SK-MEL-2 melanoma
LOX IMVI melanoma = tested on: LOX IMVI melanoma
SK-MEL-5 melanoma = tested on: SK-MEL-5 melanoma
HS 578T breast = tested on: HS 578T breast
HCT-15 colon = tested on: HCT-15 colon
MALME-3M melanoma = tested on: MALME-3M melanoma
A498 renal = tested on: A498 renal
K-562 leukemia = tested on: K-562 leukemia
NCI/ADR-RES ovarian = tested on: NCI/ADR-RES ovarian
SNB-75 CNS = tested on: SNB-75 CNS
NCI-H226 lung = tested on: NCI-H226 lung
HCT-116 colon = tested on: HCT-116 colon
ACHN renal = tested on: ACHN renal
CCRF-CEM leukemia = tested on: CCRF-CEM leukemia
M14 melanoma = tested on: M14 melanoma
OVCAR-3 ovarian = tested on: OVCAR-3 ovarian
SF-295 CNS = tested on: SF-295 CNS
RXF 393 renal = tested on: RXF 393 renal
SF-539 CNS = tested on: SF-539 CNS
RPMI-8226 leukemia = tested on: RPMI-8226 leukemia
TK-10 renal = tested on: TK-10 renal
OVCAR-8 ovarian = tested on: OVCAR-8 ovarian
SK-OV-3 ovarian = tested on: SK-OV-3 ovarian
UACC-62 melanoma = tested on: UACC-62 melanoma
MOLT-4 leukemia = tested on: MOLT-4 leukemia
HCC-2998 colon = tested on: HCC-2998 colon

Compound: Oc1c(I)cc(I)cc1CN(Cc1ccccn1)Cc1ccccn1
- GI50 (NCI-H522 lung): 2040 nM
- TGI (NCI-H522 lung): 28000 nM
- GI50 (DU-145 prostate): 1570 nM
- TGI (DU-145 prostate): 20400 nM
- GI50 (T-47D breast): 1340 nM
- TGI (T-47D breast): 10600 nM
- GI50 (KM12 colon): 774 nM
- TGI (KM12 colon): > 42300 nM
- GI50 (CAKI-1 renal): 499 nM
- TGI (CAKI-1 renal): 12200 nM
- GI50 (SW-620 colon): 847 nM
- TGI (SW-620 colon): 23500 nM
- GI50 (IGROV1 ovarian): 1120 nM
- TGI (IGROV1 ovarian): 12600 nM
- GI50 (NCI-H23 lung): 2480 nM
- TGI (NCI-H23 lung): 40600 nM
- GI50 (HL-60(TB) leukemia): 1300 nM
- TGI (HL-60(TB) leukemia): 7030 nM
- GI50 (HOP-62 NSCLC): 311 nM
- TGI (HOP-62 NSCLC): 8450 nM
- GI50 (UO-31 renal): 554 nM
- TGI (UO-31 renal): 3070 nM
- GI50 (SF-268 CNS): 575 nM
- TGI (SF-268 CNS): 16100 nM
- GI50 (EKVX NSCLC): 987 nM
- TGI (EKVX NSCLC): 17200 nM
- GI50 (PC-3 prostate): 898 nM
- TGI (PC-3 prostate): 20600 nM
- GI50 (MDA-MB-435): 2190 nM
- TGI (MDA-MB-435): 18700 nM
- GI50 (SR leukemia): 476 nM
- TGI (SR leukemia): 9770 nM
- GI50 (HT29 colon): 3930 nM
- TGI (HT29 colon): 18000 nM
- GI50 (SNB-19 CNS): 860 nM
- TGI (SNB-19 CNS): > 64200 nM
- GI50 (U251 CNS): 419 nM
- TGI (U251 CNS): 11700 nM
- GI50 (786-0 renal): 952 nM
- TGI (786-0 renal): 12000 nM
- GI50 (A549 NSCLC): 906 nM
- TGI (A549 NSCLC): 13400 nM
- GI50 (OVCAR-4 ovarian): 658 nM
- TGI (OVCAR-4 ovarian): > 44100 nM
- GI50 (COLO 205 colon): 2000 nM
- TGI (COLO 205 colon): 15100 nM
- GI50 (BT-549 breast): 1120 nM
- TGI (BT-549 breast): 13800 nM
- GI50 (MCF7 breast): 548 nM
- TGI (MCF7 breast): > 39900 nM
- GI50 (NCI-H460 lung): 456 nM
- TGI (NCI-H460 lung): 8680 nM
- GI50 (SN12C renal): 1230 nM
- TGI (SN12C renal): 33600 nM
- GI50 (SK-MEL-28 melanoma): 1440 nM
- TGI (SK-MEL-28 melanoma): 31600 nM
- GI50 (HOP-92 NSCLC): 1180 nM
- TGI (HOP-92 NSCLC): 9040 nM
- GI50 (UACC-257 melanoma): 2800 nM
- TGI (UACC-257 melanoma): 14500 nM
- GI50 (MDA-MB-231 breast): 1860 nM
- TGI (MDA-MB-231 breast): > 51300 nM
- GI50 (OVCAR-5 ovarian): 2140 nM
- TGI (OVCAR-5 ovarian): 53500 nM
- GI50 (SK-MEL-2 melanoma): 2080 nM
- TGI (SK-MEL-2 melanoma): 12200 nM
- GI50 (LOX IMVI melanoma): 629 nM
- TGI (LOX IMVI melanoma): > 33800 nM
- GI50 (SK-MEL-5 melanoma): 542 nM
- TGI (SK-MEL-5 melanoma): 2590 nM
- GI50 (HS 578T breast): 2060 nM
- TGI (HS 578T breast): 16000 nM
- GI50 (HCT-15 colon): 453 nM
- TGI (HCT-15 colon): > 40600 nM
- GI50 (MALME-3M melanoma): 1840 nM
- TGI (MALME-3M melanoma): 9200 nM
- GI50 (A498 renal): 1290 nM
- TGI (A498 renal): 6190 nM
- GI50 (K-562 leukemia): 548 nM
- TGI (K-562 leukemia): 14600 nM
- GI50 (NCI/ADR-RES ovarian): 1130 nM
- TGI (NCI/ADR-RES ovarian): 6460 nM
- GI50 (SNB-75 CNS): 419 nM
- TGI (SNB-75 CNS): 7670 nM
- GI50 (NCI-H226 lung): 1160 nM
- TGI (NCI-H226 lung): 7480 nM
- GI50 (HCT-116 colon): 666 nM
- TGI (HCT-116 colon): 12400 nM
- GI50 (ACHN renal): 502 nM
- TGI (ACHN renal): 6980 nM
- GI50 (CCRF-CEM leukemia): 385 nM
- TGI (CCRF-CEM leukemia): 30800 nM
- GI50 (M14 melanoma): 766 nM
- TGI (M14 melanoma): 9860 nM
- GI50 (OVCAR-3 ovarian): 1830 nM
- TGI (OVCAR-3 ovarian): 15100 nM
- GI50 (SF-295 CNS): 658 nM
- TGI (SF-295 CNS): > 27100 nM
- GI50 (RXF 393 renal): 1860 nM
- TGI (RXF 393 renal): 9760 nM
- GI50 (SF-539 CNS): 855 nM
- TGI (SF-539 CNS): 10000 nM
- GI50 (RPMI-8226 leukemia): 1170 nM
- TGI (RPMI-8226 leukemia): 14100 nM
- GI50 (TK-10 renal): 367 nM
- TGI (TK-10 renal): 11700 nM
- GI50 (OVCAR-8 ovarian): 547 nM
- TGI (OVCAR-8 ovarian): 23200 nM
- GI50 (SK-OV-3 ovarian): 476 nM
- TGI (SK-OV-3 ovarian): 5300 nM
- GI50 (UACC-62 melanoma): 499 nM
- TGI (UACC-62 melanoma): 5730 nM
- GI50 (MOLT-4 leukemia): 890 nM
- TGI (MOLT-4 leukemia): 10700 nM
- GI50 (HCC-2998 colon): 4180 nM
- TGI (HCC-2998 colon): 34700 nM
